25 compounds from US6642256B2, “Piperidine derivatives as subtype selective N-Methyl-D-Aspartate antagonists” (Warner-Lambert Company LLC, priority 2000, dated 2003) can be followed below.

Structures can show the parent of a compound that is named as a salt. Some results are limits rather than exact numbers.

The target of the first data set is T1, NR1A/NR2B NMDA receptor subtype (Rattus norvegicus, UniProt P35439+Q00960).
T1 construct: buffy coat membrane fraction was prepared from frozen adult rat forebrains; tissue Zivic-Miller Laboratories, Inc; host or cells: adult rat forebrain membranes
T1 sequence (Q00960 27-1482, other chains not shown): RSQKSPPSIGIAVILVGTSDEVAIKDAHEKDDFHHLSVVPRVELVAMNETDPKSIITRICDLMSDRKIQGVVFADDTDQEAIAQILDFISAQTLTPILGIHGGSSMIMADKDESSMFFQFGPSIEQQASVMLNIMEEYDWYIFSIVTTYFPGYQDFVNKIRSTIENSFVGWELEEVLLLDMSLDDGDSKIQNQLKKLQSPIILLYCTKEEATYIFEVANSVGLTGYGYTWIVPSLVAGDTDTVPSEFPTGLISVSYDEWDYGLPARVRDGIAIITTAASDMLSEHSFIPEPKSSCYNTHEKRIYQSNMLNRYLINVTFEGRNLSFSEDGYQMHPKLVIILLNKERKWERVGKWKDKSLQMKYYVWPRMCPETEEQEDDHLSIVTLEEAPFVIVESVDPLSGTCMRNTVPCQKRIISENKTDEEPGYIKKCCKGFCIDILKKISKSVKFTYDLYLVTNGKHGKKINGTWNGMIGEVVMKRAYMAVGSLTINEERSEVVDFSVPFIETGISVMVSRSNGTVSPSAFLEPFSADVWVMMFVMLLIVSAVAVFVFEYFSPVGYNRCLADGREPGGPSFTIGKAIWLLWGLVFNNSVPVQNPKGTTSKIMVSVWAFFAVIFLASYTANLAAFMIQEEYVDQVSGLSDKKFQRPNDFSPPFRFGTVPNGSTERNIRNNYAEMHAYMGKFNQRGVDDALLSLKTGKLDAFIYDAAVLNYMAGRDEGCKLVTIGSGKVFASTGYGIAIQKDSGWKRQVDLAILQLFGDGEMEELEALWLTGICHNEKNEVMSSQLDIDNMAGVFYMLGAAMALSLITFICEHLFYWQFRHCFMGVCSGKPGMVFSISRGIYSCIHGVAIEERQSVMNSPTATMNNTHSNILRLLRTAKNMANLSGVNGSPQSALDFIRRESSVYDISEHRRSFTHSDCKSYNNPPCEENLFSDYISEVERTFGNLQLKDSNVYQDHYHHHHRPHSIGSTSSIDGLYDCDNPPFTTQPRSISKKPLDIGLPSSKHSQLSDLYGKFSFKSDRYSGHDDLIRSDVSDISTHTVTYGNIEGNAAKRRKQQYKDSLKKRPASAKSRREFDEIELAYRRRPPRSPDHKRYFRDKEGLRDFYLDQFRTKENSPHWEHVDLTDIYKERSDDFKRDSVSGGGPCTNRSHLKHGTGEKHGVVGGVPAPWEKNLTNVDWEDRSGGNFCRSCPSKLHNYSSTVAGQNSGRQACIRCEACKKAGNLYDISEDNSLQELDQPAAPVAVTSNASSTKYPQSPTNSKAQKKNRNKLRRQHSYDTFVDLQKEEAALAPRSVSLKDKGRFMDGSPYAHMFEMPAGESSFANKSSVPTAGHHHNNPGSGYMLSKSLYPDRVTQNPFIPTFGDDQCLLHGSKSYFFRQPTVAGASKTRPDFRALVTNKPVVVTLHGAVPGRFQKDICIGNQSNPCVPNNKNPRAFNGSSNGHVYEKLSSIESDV
Nature of the data set: [3H]Ifenprodil binding assay (IFPNR), rat forebrain membranes. As to conditions: Table 1, 4 nM [3H]-ifenprodil, read-out: IFPNR (IC50 μM). On the procedure: b. [^3H]Ifenprodil Binding Assay (IFPNR) Protocol:
Ifenprodil, [phenyl-^3H]-(specific activity, 66.2 Ci/mmol) was purchased from Dupont NEN Research Products (Boston, Mass.). Ifenprodil tartrate was purchased from Research Biochemicals International (Natick, Mass.). HEPES, glutamate and glycine were purchased from Sigma Chemical Co. (St. Louis, Mo.).
All buffers and reagents used in assay incubations or to dissolve drugs were prepared using water purified through a Milli-Q reverse osmosis system (Millipore Corp., Bedford, Mass.) and treated with UV emissions. Prior to use in the assays buffers were further filtered through a sterile Coming filtration unit (Coming Glass Works, Coming, N.Y.) containing a 0.2 micron filter. Buffer used to rinse the membranes on the assay filters was prepared with purified water, but was not refiltered and was stored no longer than 5 days. Stock solutions of the drugs (usually 10 mM) were dissolved in 20 mM HEPES-KOH buffer pH 7.4 (assay buffer) with the addition of 1 to 5 μL of glacial AcOH, if needed to keep them in solution. Eliprodil was used as the reference NMDA antagonist. A stock solution of eliprodil was prepared, and was buffered with the addition of 10% DMSO. All subsequent dilutions from the stock solution were made in buffer.
An extensively washed buffy coat membrane fraction was prepared from frozen adult rat forebrains (Zivic-Miller Laboratories, Inc., Zelienople, Pa.) as described by Coughenour L. L.; Cordon, J. J., J. Pharmacol. Exp. Ther., 1997;280:584-592, and stored at −80° C. On the day of the assay, pellets of the frozen membrane fractions were resuspended in 35 mL of assay buffer at pH 7.4 using a POLYTRON (Kinematica A. G. Company, Littau, Switzerland) mixer at setting 6. After incubation at 37° C. for 30 minutes in a shaking water bath, the homogenate was centrifuged 40,000×g for 10 minutes at 4° C. The pellets were resuspended in fresh buffer and centrifuged 3 more times before final suspension for use in the assay.
(iii) [^3H]Ifenprodil Binding protocol:
Triplicate incubations were carried out in a volume of 0.5 mL in 1.3 mL polypropylene tubes (Marsh Biomedical Products Inc, Rochester, N.Y.) for 2 hours at room temperature. Incubations contained invention compounds, membranes (100-200 μg protein) and 4 nM [^3H]-ifenprodil in 20 mM HEPES-KOH buffer, pH 7.4 (assay buffer). Assays were started by addition of the membranes. Bound radioligand was separated by filtration under reduced pressure using a TOMTEC Mach II, 96-well cell harvester (Tomtec Inc, Orange, Conn.). Filtration was through Whatman GF/B glass fiber filters (Whatman Ltd., Maidstone, England), which had been soaked for at least 15 minutes in 0.3% polyethylenimine and allowed to air dry. The filters were rinsed with 3 mL of ice cold assay buffer within 6 seconds. Air was allowed to pass through the filters for an additional 10 seconds to remove residual moisture. The filter mat was supported on a cold (−20° C.) TEFLON (E. I. Du Pont de Nemours and Company, Wilmington, Del.) coated support, and filters from individual wells were separated and placed in Mini Poly-Q vials (Becklman Instruments Inc, Fullerton, Calif.) and filled with 4 mL of scintillation cocktail (Beckman Ready Protein^+). Radioactivity retained on the filter was determined by liquid scintillation spectrophotometry. Nonspecific binding was defined as the binding in the presence of […] ifenprodil. Ninety percent of the total binding of ifenprodil was specific binding at the NR1A/NR2B NMDA receptor subtype active site (as opposed to binding at a remote site).
Binding curves were statistically analyzed for a best 1- or 2-site competition fit using GRAPHPAD PRISM software (GraphPad Software Inc, San Diego, Calif.), a computer program used to analyze and graph scientific data. The normalized data was fitted by nonweighted nonlinear regression to either [formula]
Control data was entered as 100%, and no parameters were constrained. […]
As to `O=c1[nH]c2ccc(C3=NOC(CN4CCC(Cc5ccc(F)cc5)CC4)C3)cc2o1` (racemic) [Example 3, 6-{5-[4-(4-Fluorobenzyl)piperidin-1-ylmethyl]-4,5-dihydroisoxazol-3-yl}-3H-benzoxazol-2-one hydrochloride], the IC50 stood at 0.03 µM.

The same data set, now with this note: Table 2, 4 nM [3H]-ifenprodil, read-out: IFPNR IC50 μm.
As for `O=c1[nH]c2ccc(-c3cnc(CN4CCC(Cc5ccc(F)cc5)CC4)s3)cc2o1` [Example 6, 6-{2-[4-(4-Fluorobenzyl)piperidin-1-ylmethyl]thiazol-5-yl}-3H-benzoxazol-2-one], the half-maximal inhibitory concentration (IC50) came to 0.54 µM. `O=c1[nH]c2ccc(-c3cnc(CN4CCC(Cc5ccc(F)cc5)CC4)s3)cc2s1` [Example 7, 6-{2-[4-(4-Fluorobenzyl)piperidin-1-ylmethyl]thiazol-5-yl}-3H-benzothiazol-2-one]: the concentration for half-maximal inhibition (IC50) is 0.45 µM. Still for that read-out and setting: the result for `S=c1[nH]c2ccc(-c3cnc(CN4CCC(Cc5ccccc5)CC4)s3)cc2[nH]1` [Example 8, 5-[2-(4-Benzylpiperidin-1-ylmethyl)thiazol-5-yl]-1,3-dihydrobenzimidazole-2-thione] reads 0.066 µM; that for `O=c1[nH]c2ccc(C3=NCC(CN4CCC(Cc5ccc(F)cc5)CC4)S3)cc2o1` (stereo not shown) [Example 12, 6-{5-[4-(4-Fluorobenzyl)piperidin-1-ylmethyl]-4,5-dihydrothiazol-2-yl}-3H-benzoxazol-2-one], 0.394 µM; that for `O=c1[nH]c2ccc(-c3cnc(CN4CCC(Cc5ccccc5)CC4)o3)cc2o1` [Example 10, 6-[2-(4-Benzylpiperidin-1-ylmethyl)oxazol-5-yl]-3H-benzoxazol-2-one], > 1 µM. Same read-out and setting: the result for `O=C1Cc2cc(-c3cnc(CN4CCC(Cc5ccccc5)CC4)o3)ccc2N1` [Example 11, 5-[2-(4-Benzylpiperidin-1-ylmethyl)oxazol-5-yl]-1,3-dihydroindol-2-one] reads > 1 µM; that for `O=c1[nH]c2ccc(C3=NCC(CN4CCC(Cc5ccccc5)CC4)S3)cc2o1` (stereo not shown) [Example 13, 6-[5-(4-Benzylpiperidin-1-ylmethyl)-4,5-dihydrothiazol-2-yl]-3H-benzoxazol-2-one], 0.101 µM. In the case of `O=c1[nH]c2ccc(-c3cnc(CN4CCC(Cc5ccc(F)cc5)CC4)o3)cc2s1` [Example 9, 6-{2-[4-(4-Fluorobenzyl)piperidin-1-ylmethyl]oxazol-5-yl}-3H-benzothiazol-2-one], the IC50 was > 1 µM.

Still in this data set, the particulars now being: Table 3, 4 nM [3H]-ifenprodil, read-out: IFPNR IC50.
As for `O=c1[nH]c2ccc(C3=NOC(CCN4CCC(Cc5ccc(F)cc5)CC4)C3)cc2o1` (stereo not shown) [Example 19, 6-(5-{2-[4-(4-Fluorobenzyl)piperidin-1-yl]ethyl}-4,5-dihydroisoxazol-3-yl)-3H-benzoxazol-2-one], the IC50 was 0.4 µM. Still for that read-out and setting: the result for `O=c1[nH]c2ccc(C3=NOC(CN4CCC(O)(Cc5ccccc5)CC4)C3)cc2o1` (stereo not shown) [Example 17, 6-[5-(4-Benzyl-4-hydroxypiperidin-1-ylmethyl)-4,5-dihydroisoxazol-3-yl]-3H-benzoxazol-2-one] reads 0.006 µM. For the compound `Cc1noc(CN2CCC(Cc3ccccc3)CC2)c1-c1ccc2[nH]c(=O)oc2c1` [Example 2, 6-[5-(4-Benzylpiperidin-1-ylmethyl)-3-methylisoxazol-4-yl]-3H-benzoxazol-2-one], the concentration for half-maximal inhibition (IC50) was > 1 µM. Still for that read-out and setting: then `O=c1[nH]c2ccc(C3=NOC(CN4CCC(O)(Cc5ccc(F)cc5)CC4)C3)cc2o1` (stereo not shown) [Example 20, 6-{5-[4-(4-Fluorobenzyl)-4-hydroxypiperidin-1-ylmethyl]-4,5-dihydroisoxazol-3-yl}-3H-benzoxazol-2-one], with 0.008 µM.

Still in this data set, the particulars now being: Table 4, 4 nM [3H]-ifenprodil, read-out: IFPNR IC50.
Regarding `O=c1[nH]c2ccc(C3=NOC(CN4CCC(C(O)c5ccc(F)cc5)CC4)C3)cc2o1` (stereo not shown) [Example 31, 6-(5-{4-[(4-Fluorophenyl)hydroxymethyl]piperidin-1-ylmethyl}-4,5-dihydroisoxazol-3-yl)-3H-benzoxazol-2-one], the IC50 is > 1 µM.

As to `O=c1[nH]c2ccc(C3=NOC(CN4CCC([S+]([O-])c5ccc(F)cc5)CC4)C3)cc2o1` (stereo not shown) [Example 29, 6-{5-[4-(4-Fluorobenzenesulfinyl)piperidin-1-ylmethyl]-4,5-dihydroisoxazol-3-yl}-3H-benzoxazol-2-one], the half-maximal inhibitory concentration (IC50) was found to be 0.6 µM.

Staying with this data set, now noted: Table 5, 4 nM [3H]-ifenprodil, read-out: IFPNR IC50.
For `O=c1[nH]c2ccc(C3=NOC(CN4CCC(Cc5ccc(F)cc5)CC4)C3)cc2s1` (stereo not shown) [Example 16], the half-inhibitory concentration (IC50) worked out at 0.002 µM. Still for that read-out and setting: then `O=c1[nH]c2ccc(C3=NOC(CN4CC[C@@H](Cc5ccc(F)cc5)[C@@H](O)C4)C3)cc2o1` (stereo in doubt) [Example 26, 6-{5-[4-(4-Fluorobenzyl)-3-hydroxypiperidin-1-ylmethyl]-4,5-dihydroisoxazol-3-yl}-3H-benzoxazol-2-one], with 0.023 µM.

Tested on in a further data set: not given
Assay: not given
Details: not given
The compound `O=c1[nH]c2ccc(C3=NOC(CCN4CCC(Cc5ccc(F)cc5)CC4)C3)cc2o1` (stereo not shown) (as salt: HCl) [Example 19, 6-(5-{2-[4-(4-Fluorobenzyl)piperidin-1-yl]ethyl}-4,5-dihydroisoxazol-3-yl)-3H-benzoxazol-2-one] returned a melting point of 254 to 258 °C.

`O=c1[nH]c2ccc(C3=NOC(CN4CCC(O)(Cc5ccc(F)cc5)CC4)C3)cc2o1` (stereo not shown) (as salt: HCl) [Example 20, 6-{5-[4-(4-Fluorobenzyl)-4-hydroxypiperidin-1-ylmethyl]-4,5-dihydroisoxazol-3-yl}-3H-benzoxazol-2-one] yielded a melting point of 195 to 204 °C. Still for that read-out and setting: then `O=c1[nH]c2ccc(C3=NOC(CN4CCC(O)(Cc5ccccc5)CC4)C3)cc2o1` (stereo not shown) (as salt: HCl) [Example 17, 6-[5-(4-Benzyl-4-hydroxypiperidin-1-ylmethyl)-4,5-dihydroisoxazol-3-yl]-3H-benzoxazol-2-one], with 166 to 170 °C.

In the case of `CCOC(=O)C1(Cc2ccc(F)cc2)CCN(CC2CC(c3ccc4[nH]c(=O)oc4c3)=NO2)CC1` (stereo not shown) [Example 24, 4-(4-Fluorobenzyl)-1-[3-(2-oxo-2,3-dihydrobenzoxazol-6-yl)-4,5-dihydroisoxazol-5-ylmethyl]piperidine-4-carboxylic acid ethyl ester], the melting point fell in the range of 212 to 214 °C. On the same count and under the same terms, then `O=c1[nH]c2ccc(C3=NOC(CN4CCC(C(O)c5ccc(F)cc5)CC4)C3)cc2o1` (stereo not shown) (as salt: HCl) [Example 31, 6-(5-{4-[(4-Fluorophenyl)hydroxymethyl]piperidin-1-ylmethyl}-4,5-dihydroisoxazol-3-yl)-3H-benzoxazol-2-one], with 186 to 191 °C; and `O=c1[nH]c2ccc(C3=NOC(CN4CCC(Cc5ccc(F)cc5)CC4)C3)cc2s1` (stereo not shown) (as salt: HCl) [Example 16], with 271 to 276 °C.

Consider `COC(=O)C1(CN2CCC(Cc3ccc(F)cc3)CC2)CC(c2ccc3[nH]c(=O)oc3c2)=NO1` (stereo not shown) (as salt: salt) [Example 23, 5-[4-(4-Fluorobenzyl)piperidin-1-ylmethyl]-3-(2-oxo-2,3-dihydrobenzoxazol-6-yl)-4,5-dihydroisoxazole-5-carboxylic acid methyl ester], for which the melting point lay in the range of 146 to 155 °C. The same measure, in the same setting: the result for `O=c1[nH]c2ccc(C3=NOC(CN4CC[C@@H](Cc5ccc(F)cc5)[C@@H](O)C4)C3)cc2o1` (stereo in doubt) (as salt: HCl) [Example 26, 6-{5-[4-(4-Fluorobenzyl)-3-hydroxypiperidin-1-ylmethyl]-4,5-dihydroisoxazol-3-yl}-3H-benzoxazol-2-one] reads 224 to 233 °C.

By IC50 is commonly meant the midpoint of a concentration-inhibition curve. In general, melting point refers to the temperature, or range, at which the solid turns liquid.
